In patent publication US20260125421A1, “ANTIVIRAL COMPOUNDS” (Hoffmann-La Roche Inc., priority 2022, published 2026):

How the values were obtained:
Assay in all cases: biochemical
[1] = target: T1, HCoV-229E 3CL^pro (Human coronavirus 229E, UniProt P0C6X1)
T1 construct: […]; made in house; host or cells: E. coli BL21 (DE3)

[2] = target: SARS-CoV 3CL^pro (Severe acute respiratory syndrome coronavirus, UniProt P0C6X7)
[3] = target: T2, SARS-CoV-2 3CL^pro (Severe acute respiratory syndrome coronavirus 2, UniProt P0DTD1)
T2 construct: […]; made in house; host or cells: Escherichia coli

[4] = target: MERS-CoV 3CL^pro (Middle East respiratory syndrome-related coronavirus, UniProt K9N7C7)
MERS-CoV 3CL^pro, sequence (K9N7C7 3248-3553): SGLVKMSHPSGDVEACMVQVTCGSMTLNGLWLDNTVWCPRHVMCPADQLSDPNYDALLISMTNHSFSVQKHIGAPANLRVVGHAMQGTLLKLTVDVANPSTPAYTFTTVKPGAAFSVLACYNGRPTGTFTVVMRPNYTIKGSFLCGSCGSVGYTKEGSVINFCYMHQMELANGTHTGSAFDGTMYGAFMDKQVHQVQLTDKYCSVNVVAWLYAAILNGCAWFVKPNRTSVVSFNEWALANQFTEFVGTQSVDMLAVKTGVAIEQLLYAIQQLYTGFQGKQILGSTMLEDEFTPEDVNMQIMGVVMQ

T1 sequence (P0C6X1 2966-3267): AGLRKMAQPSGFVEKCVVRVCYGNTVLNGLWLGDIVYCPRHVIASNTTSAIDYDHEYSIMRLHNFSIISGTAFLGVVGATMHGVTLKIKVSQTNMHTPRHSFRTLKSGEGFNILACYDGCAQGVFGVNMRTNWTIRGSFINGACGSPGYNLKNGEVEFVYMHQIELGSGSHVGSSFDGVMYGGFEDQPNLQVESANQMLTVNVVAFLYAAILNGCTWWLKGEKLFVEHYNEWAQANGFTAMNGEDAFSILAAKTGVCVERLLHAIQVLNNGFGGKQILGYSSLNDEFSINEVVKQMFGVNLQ

SMILES	IC50 [1]	IC50 [2]	IC50 [3]	IC50 [4]
CC1(C)CC(CN(NC(=O)[C@@H]2[C@H]3CCC[C@H]3CN2C(=O)[C@@H](NC(=O)[C@@H]2CC2(F)F)C(C)(C)C)C(=O)[C@H](F)Cl)C(=O)N1 (mixture of isomers) [Example 3, (1S)—N-[(1S)-1-[(3S,3aS,6aR)-3-[[[(2R)-2-chloro-2-fluoro-acetyl]-[rac-(5,5-dimethyl-2-oxo-pyrrolidin-3-yl)methyl]amino]carbamoyl]-3,3a,4,5,6,6a-hexahydro-1H-cyclopenta[c]pyrrole-2-carbonyl]-2,2-dimethyl-propyl]-2,2-difluoro-cyclopropanecarboxamide]	2520 nM	28 nM	23 nM	850 nM
CC1(C)C[C@@H](CN(NC(=O)[C@@H]2[C@H]3CCC[C@H]3CN2C(=O)[C@@H](NC(=O)[C@@H]2CC2(F)F)C(C)(C)C)C(=O)[C@H](F)Cl)C(=O)N1 [Example 4, (1S)-N-[(1S)-1-[(3S,3aS,6aR)-3-[[[(2R)-2-chloro-2-fluoro-acetyl]-[[(3S)-5,5-dimethyl-2-oxo-pyrrolidin-3-yl]methyl]amino]carbamoyl]-3,3a,4,5,6,6a-hexahydro-1H-cyclopenta[c]pyrrole-2-carbonyl]-2,2-dimethyl-propyl]-2,2-difluoro-cyclopropanecarboxamide]	838 nM	15 nM	11 nM	518 nM
CC1(C)C[C@@H](CN(NC(=O)[C@@H]2[C@H]3CCC[C@H]3CN2C(=O)[C@@H](NC(=O)[C@H](F)Cl)C(C)(C)C)C(=O)[C@H](F)Cl)C(=O)N1 [Example 14, (2R)-N-[(1S)-1-[(3S,3aS,6aR)-3-[[[(2R)-2-chloro-2-fluoro-acetyl]-[[(3S)-5,5-dimethyl-2-oxo-pyrrolidin-3-yl]methyl]amino]carbamoyl]-3,3a,4,5,6,6a-hexahydro-1H-cyclopenta[c]pyrrole-2-carbonyl]-2,2-dimethyl-propyl]-2-chloro-2-fluoro-acetamide]	1270 nM	9 nM	9 nM	1240 nM
CC1(C)C[C@@H](CN(NC(=O)[C@@H]2[C@H]3CCC[C@H]3CN2C(=O)[C@@H](NC(=O)[C@@H](F)Cl)C(C)(C)C)C(=O)[C@@H](F)Cl)C(=O)N1 [Example 17]	4260 nM	19 nM	16 nM	1870 nM
CC1(C)C[C@H](CN(NC(=O)[C@@H]2[C@H]3CCC[C@H]3CN2C(=O)[C@@H](NC(=O)C(F)F)C(C)(C)C)C(=O)[C@H](F)Cl)C(=O)N1 [Example 10, N-[(1S)-1-[(3S,3aS,6aR)-3-[[[(2R)-2-chloro-2-fluoro-acetyl]-[[(3R)-5,5-dimethyl-2-oxo-pyrrolidin-3-yl]methyl]amino]carbamoyl]-3,3a,4,5,6,6a-hexahydro-1H-cyclopenta[c]pyrrole-2-carbonyl]-2,2-dimethyl-propyl]-2,2-difluoro-acetamide]	3040 nM	53 nM	31 nM	794 nM
C[C@H]1C[C@H](CN(NC(=O)[C@@H]2[C@@H]3[C@H](CN2C(=O)[C@@H](NC(=O)[C@@H]2CC2(F)F)C(C)(C)C)C3(C)C)C(=O)[C@H](F)Cl)C(=O)N1 [Example 31, (1S)-N-[(1S)-1-[(1R,2S,5S)-2-[[[(2R)-2-chloro-2-fluoro-acetyl]-[[(3R,5S)-5-methyl-2-oxo-pyrrolidin-3-yl]methyl]amino]carbamoyl]-6,6-dimethyl-3-azabicyclo[3.1.0]hexane-3-carbonyl]-2,2-dimethyl-propyl]-2,2-difluoro-cyclopropanecarboxamide]	116 nM	53 nM	25 nM	555 nM
C[C@@H]1C[C@H](CN(NC(=O)[C@@H]2[C@H]3CCC[C@H]3CN2C(=O)[C@@H](NC(=O)[C@@H]2CC2(F)F)C(C)(C)C)C(=O)[C@@H](F)Cl)C(=O)N1 [Example 29, (1S)-N-[(1S)-1-[(3S,3aS,6aR)-3-[[[(2S)-2-chloro-2-fluoro-acetyl]-[[(3R,5R)-5-methyl-2-oxo-pyrrolidin-3-yl]methyl]amino]carbamoyl]-3,3a,4,5,6,6a-hexahydro-1H-cyclopenta[c]pyrrole-2-carbonyl]-2,2-dimethyl-propyl]-2,2-difluoro-cyclopropanecarboxamide]	233 nM	93 nM	36 nM	344 nM
CC1(C)C[C@H](CN(NC(=O)[C@@H]2[C@H]3CCC[C@H]3CN2C(=O)[C@@H](NC(=O)[C@@H]2CC2(F)F)C(C)(C)C)C(=O)[C@H](F)Cl)C(=O)N1 [Example 5, (1S)-N-[(1S)-1-[(3S,3aS,6aR)-3-[[[(2R)-2-chloro-2-fluoro-acetyl]-[[(3R)-5,5-dimethyl-2-oxo-pyrrolidin-3-yl]methyl]amino]carbamoyl]-3,3a,4,5,6,6a-hexahydro-1H-cyclopenta[c]pyrrole-2-carbonyl]-2,2-dimethyl-propyl]-2,2-difluoro-cyclopropanecarboxamide]	4100 nM	137 nM	81 nM	1240 nM
CCC(CC)[C@H](NC(=O)C(F)F)C(=O)N1C[C@@H]2CCC[C@@H]2[C@H]1C(=O)NN(C[C@@H]1CC(C)(C)NC1=O)C(=O)[C@H](F)Cl [Example 7, N-[(1S)-1-[(3S,3aS,6aR)-3-[[[(2R)-2-chloro-2-fluoro-acetyl]-[[(3S)-5,5-dimethyl-2-oxo-pyrrolidin-3-yl]methyl]amino]carbamoyl]-3,3a,4,5,6,6a-hexahydro-1H-cyclopenta[c]pyrrole-2-carbonyl]-2-ethyl-butyl]-2,2-difluoro-acetamide]	130 nM	9 nM	7 nM	162 nM
CC1(C)C[C@@H](CN(NC(=O)[C@@H]2[C@@H]3[C@H](CN2C(=O)[C@@H](NC(=O)[C@@H](F)Cl)C(C)(C)C)C3(C)C)C(=O)[C@@H](F)Cl)C(=O)N1 [Example 22, (2S)-2-chloro-N-[(1S)-1-[(1R,2S,5S)-2-[[[(2S)-2-chloro-2-fluoro-acetyl]-[[(3S)-5,5-dimethyl-2-oxo-pyrrolidin-3-yl]methyl]amino]carbamoyl]-6,6-dimethyl-3-azabicyclo[3.1.0]hexane-3-carbonyl]-2,2-dimethyl-propyl]-2-fluoro-acetamide]	3520 nM	48 nM	31 nM	1870 nM
CC1(C)C[C@@H](CN(NC(=O)[C@@H]2[C@@H]3[C@H](CN2C(=O)[C@@H](NC(=O)[C@@H]2CC2(F)F)C(C)(C)C)C3(C)C)C(=O)[C@H](F)Cl)C(=O)N1 [Example 21, (1S)-N-[(1S)-1-[(1R,2S,5S)-2-[[[(2R)-2-chloro-2-fluoro-acetyl]-[[(3S)-5,5-dimethyl-2-oxo-pyrrolidin-3-yl]methyl]amino]carbamoyl]-6,6-dimethyl-3-azabicyclo[3.1.0]hexane-3-carbonyl]-2,2-dimethyl-propyl]-2,2-difluoro-cyclopropanecarboxamide]	778 nM	22 nM	14 nM	402 nM
